Measured values as given in patent US20090238768A1, “MULTIMERIC MAGNETIC RESONANCE CONTRAST AGENTS” (priority 2005, published 2009).
Where two headings read alike, the source gives them in different places.

Key:
[1] = longitudinal relaxivity rl in human blood plasma at 37° C.; assay type: physicochemical; conditions: for longitudinal relaxivity rl calculated for a field of 3 T: calculated from the measurements at lower fields
Experimental: Compound 23 was dissolved in human blood plasma and the longitudinal relaxivity rl was measured at 37° C. at the following fields:
Compound 13 was dissolved in human blood plasma and the longitudinal relaxivity rl was measured at 37° C. at the following fields:
Compound 36 was dissolved in human blood plasma and the longitudinal relaxivity rl was measured at 37° C. at the following fields:
Compound 40 was dissolved in human blood plasma and the longitudinal relaxivity rl was measured at 37° C. at the following fields:
Compound 43 was dissolved in human blood plasma and the longitudinal relaxivity rl was measured at 37° C. at the following fields:
Compound 46 was dissolved in human blood plasma and the longitudinal relaxivity rl was measured at 37° C. at the following fields: […]

[2] = 3 T, human blood plasma, 37° C., published data; cited from earlier work

Row | Compound | longitudinal relaxivity rl ([1]; 0.235 T) [mM^1s^1] | longitudinal relaxivity rl ([1]; 0.47 T) [mM^1s^1] | longitudinal relaxivity rl ([1]; 1.41 T) [mM^1s^1] | longitudinal relaxivity rl calculated for a field of 3 T ([1]; 3 T) [mM^1s^1] | other results
1 | Cc1c(C(=O)N(C)c2cccc(NC(=O)CN3CCN4CCN5CCN(CC3)CC(=O)[O][Gd]([O]C(=O)C4)[O]C(=O)C5)c2)c(C)c(C(=O)N(C)c2cccc(NC(=O)CN3CCN4CCN5CCN(CC3)CC(=O)[O][Gd]([O]C(=O)C4)[O]C(=O)C5)c2)c(C)c1C(=O)N(C)c1cccc(NC(=O)CN2CCN3CCN4CCN(CC2)CC(=O)[O][Gd]([O]C(=O)C3)[O]C(=O)C4)c1 [Compound 36, gadolinium derivative of 2,4,6-trimethylbenzene-1,3,5-tris-[(DO3A-(3-acetamidophenyl))-N-methyl-carboxamide]] | 9.3 | 8.8 | 7.3 | 8.5 | 
2 | Cc1c(C(=O)N(C)c2cccc(NC(=O)C(C)N3CCN4CCN5CCN(CC3)CC(=O)[O][Gd]([O]C(=O)C5)[O]C(=O)C4)c2)c(C)c(C(=O)N(C)c2cccc(NC(=O)C(C)N3CCN4CCN5CCN(CC3)CC(=O)[O][Gd]([O]C(=O)C5)[O]C(=O)C4)c2)c(C)c1C(=O)N(C)c1cccc(NC(=O)C(C)N2CCN3CCN4CCN(CC2)CC(=O)[O][Gd]([O]C(=O)C4)[O]C(=O)C3)c1 (stereo not shown) [Compound 40] | 10.1 | 8.6 | 9.1 | 9 | 
3 | Cc1c(C(=O)N(C)c2cccc(N(C)C(=O)C(C)N3CCN4CCN5CCN(CC3)CC(=O)[O][Gd]([O]C(=O)C5)[O]C(=O)C4)c2)c(C)c(C(=O)N(C)c2cccc(N(C)C(=O)C(C)N3CCN4CCN5CCN(CC3)CC(=O)[O][Gd]([O]C(=O)C5)[O]C(=O)C4)c2)c(C)c1C(=O)N(C)c1cccc(N(C)C(=O)C(C)N2CCN3CCN4CCN(CC2)CC(=O)[O][Gd]([O]C(=O)C4)[O]C(=O)C3)c1 (stereo not shown) [Compound 46] | 10.9 | 10.1 | 8.9 | 9 | 
4 | CNC[C@H](O)[C@@H](O)[C@H](O)[C@H](O)CO.CNC[C@H](O)[C@@H](O)[C@H](O)[C@H](O)CO.O=C([O-])CN(CCN(CC(=O)[O-])CC(=O)O)CCN(CC(=O)[O-])CC(=O)O.[Gd+3] [Magnevist] |  |  |  |  | longitudinal relaxivity rl [2]: 3.3 mM^1s^1
5 | CNC[C@H](O)[C@@H](O)[C@H](O)[C@H](O)CO.CNC[C@H](O)[C@@H](O)[C@H](O)[C@H](O)CO.O=C([O-])CN(CCN(CC(=O)[O-])CC(=O)O)CCN(CC(=O)O)C(COCc1ccccc1)C(=O)[O-].[Gd+3] (stereo not shown) [Multihance] |  |  |  |  | longitudinal relaxivity rl [2]: 6.3 mM^1s^1
6 | gadolinium derivative of 1,3,5-tris-(N-(DO3A-acetamido)-N-methyl-4-amino-2-methyl-phenyl)-[1,3,5]triazinane-2,4,6-trione [Compound 23] |  |  |  |  | longitudinal relaxivity rl ([1]; 0.25 T): 10.7 mM⁻¹ s⁻¹; longitudinal relaxivity rl ([1]; 1.5 T): 11.6 mM^1s^1; longitudinal relaxivity rl ([1]; 2.35 T): 10.1 mM^1s^1; longitudinal relaxivity rl ([1]; 3 T): 9.9 mM^1s^1
7 | gadolinium derivative of 2,4,6-trimethylbenzene-1,3,5-tris-[N-methyl-((2-DO3A-propyl)-3-(N′-methyl-amidophenyl))-carboxamide)] [Compound 43] | 12 | 10.6 | 9 | 8.2 | 
8 | gadolinium derivative of benzene-1,3,5-tris-[((DO3A-acetamido)-3-(N′-methylamido-phenyl))-carboxamide)] [Compound 13] |  |  |  | 9.0 | longitudinal relaxivity rl ([1]; 1.5 T): 9.2 mM^1s^1; longitudinal relaxivity rl ([1]; 2.35 T): 9.5 mM^1s^1
